The data set is classed as physicochemical. The following applies: for Stability in aqueous solution (MS, time course): DMSO solution diluted 1 to 1000 in water, followed over 24 h.

Consider `CC(C)C[C@H](NC(=O)OCc1ccccc1)C(=O)N[C@H](C=O)CC1CCNC1=O` (stereo partly drawn) [Compound 6a], for which the “Stability in aqueous solution (MS, time course)” value is “the hydrated form was the dominant species after only five minutes exposure to water”.

In the case of `CC(C)C[C@H](NC(=O)OCc1ccccc1)C(=O)N[C@@H](CC1CCNC1=O)C(O)S(=O)(=O)[O-].[Na+]` (stereo partly drawn) [Compound 7a], the “Stability in aqueous solution (MS, time course)” value was “remains unchanged as the bisulfite form after 24 h”. In addition, the “Stability in buffer solution” value (buffer solution, pH 7.4) is on record as “gradually dissociates into the corresponding aldehyde 6a within an hour”.

Values taken from publication PMC3586229 (Bioorganic & medicinal chemistry letters, 2012).
